From patent US20260070945A1, “MACROCYCLIC IMMUNOMODULATORS” (Bristol-Myers Squibb Company, priority 2022, published 2026) come the findings set out here.

Where a SMILES comes first, the peptide text is derived from it. Bridges are numbered along the chain shown (N, C = ends). [ ]: non-standard residue; d: D form. The star is where a group is joined. ξ: configuration not given here. Phe(4-COOH) = N[C@@H](Cc1ccc(C(=O)O)cc1)C(=O)O; Bip = N[C@@H](Cc1ccc(-c2ccccc2)cc1)C(=O)O; Phe(3-Me) = Cc1cccc(C[C@H](N)C(=O)O)c1; hArg = N=C(N)NCCCC[C@H](N)C(=O)O; 4Pal = N[C@@H](Cc1ccncc1)C(=O)O; Cha = N[C@@H](CC1CCCCC1)C(=O)O; Ile(3ξ) = CCC(C)[C@H](N)C(=O)O; Thr(3ξ) = CC(O)[C@H](N)C(=O)O; Chg = N[C@H](C(=O)O)C1CCCCC1; dOrn = NCCC[C@@H](N)C(=O)O; Carboxymethyl = O=C(O)C*; NMeA = CN[C@@H](C)C(=O)O; Orn = NCCC[C@H](N)C(=O)O; Aun = NCCCCCCCCCCC(=O)O; Dab = NCC[C@H](N)C(=O)O; Dap = NC[C@H](N)C(=O)O; AEEA = NCCOCCOCC(=O)O

T1 sequence (Q15116 25-288): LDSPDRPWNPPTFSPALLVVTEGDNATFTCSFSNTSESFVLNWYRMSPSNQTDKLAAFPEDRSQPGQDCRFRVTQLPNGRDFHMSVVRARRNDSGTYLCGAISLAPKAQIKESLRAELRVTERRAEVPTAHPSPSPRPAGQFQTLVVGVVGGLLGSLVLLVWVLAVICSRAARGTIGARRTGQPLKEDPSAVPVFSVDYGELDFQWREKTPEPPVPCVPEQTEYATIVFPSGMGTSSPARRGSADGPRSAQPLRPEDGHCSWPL

This assay addresses T1, PD-1/PD-L1 interaction (PE-labeled human PD-L1-Ig binding to Jurkat cell line over-expressing human PD-1) (Homo sapiens, UniProt Q15116).
T1 construct: expressed in transfected cells; host or cells: Jurkat
As to the kind of experiment: Jurkat-PD-1 Cell Binding High-Content Screening Assay (CBA). As to conditions: Jurkat-hPD-1 cells, PE-labeled PD-L1-Ig 20 nM final; read-out: Jurkat HPD1 PDL1 IC50. The gist of the method: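 Compound is added first to the PD-1-expressing Jurkat cells and held 2 h at 37 °C in serum-containing DMEM. The fluorescent PD-L1 fusion follows at 20 nM final for 1 h. Fixed, Hoechst-stained cells are then imaged for bound label.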
The term IC50 denotes the midpoint of a concentration-inhibition curve. With `CC(C)C[C@H]1NC(=O)[C@H](C)N(C)C(=O)[C@H](C(C)C)NC(=O)[C@H](Cc2ccc(-c3ccccc3)cc2)NC(=O)[C@H](C(C)C)NC(=O)[C@H](Cc2c[nH]c3ccccc23)NC(=O)[C@H](CC(=O)O)NC(=O)[C@H](Cc2ccc(OCC(=O)O)cc2)NC(=O)[C@H](CN)NC(=O)CSC[C@@H](C(=O)NCC(=O)NCCOCCOCC(=O)N[C@@H](CCCCN)C(=O)NCCCCCCCCCCC(=O)O)NC(=O)[C@H](CO)NC(=O)[C@H](C(C)C)NC(=O)[C@H](CC2CCCCC2)NC(=O)[C@H](CCN)NC1=O` [Example 2085] ({CH2CO}-[Dap]Y(Carboxymethyl)DWV[Bip]V[NMeA][dL][Dab][Cha]VSCG[AEEA]K[Aun]-OH; thioether N-14), the IC50 amounted to 9.8 nM.

Take `CCC(C)[C@@H]1NC(=O)[C@H](Cc2ccc(-c3ccccc3)cc2)NC(=O)[C@H](CC(C)C)NC(=O)[C@H](Cc2c[nH]c3ccccc23)NC(=O)[C@H](CC(=O)O)NC(=O)[C@H](Cc2ccc(O)cc2)NC(=O)[C@H](Cc2ccncc2)NC(=O)CSC[C@@H](C(=O)N[C@H](CCCN)C(=O)NCCOCCOCC(=O)NCCCCCCCCCCC(=O)O)NC(=O)[C@H](CO)NC(=O)[C@H](C(C)C)NC(=O)[C@H](CC2CCCCC2)NC(=O)[C@H](CCN)NC(=O)[C@@H](CC(C)C)NC(=O)[C@H](C)N(C)C1=O` (stereo partly drawn) [Example 2086] ({CH2CO}-[4Pal]YDWL[Bip][Ile(3ξ)][NMeA][dL][Dab][Cha]VSC[dOrn][AEEA][Aun]-OH; thioether N-14): the half-inhibitory concentration (IC50) is 18.5 nM.

For the compound `CCC(C)[C@@H]1NC(=O)[C@H](Cc2ccc(-c3ccccc3)cc2)NC(=O)[C@H](CC(C)C)NC(=O)[C@H](Cc2c[nH]c3ccccc23)NC(=O)[C@H](CC(=O)O)NC(=O)[C@H](Cc2ccc(OCC(=O)O)cc2)NC(=O)[C@H](Cc2ccncc2)NC(=O)CSC[C@@H](C(=O)N[C@@H](CCCN)C(=O)NCCOCCOCC(=O)NCCCCCCCCCCC(=O)O)NC(=O)[C@H](CO)NC(=O)[C@H](C(C)C)NC(=O)[C@H](CC2CCCCC2)NC(=O)[C@H](Cc2c[nH]cn2)NC(=O)[C@@H](CC(C)C)NC(=O)[C@H](C)N(C)C1=O` (stereo partly drawn) [Example 2087] ({CH2CO}-[4Pal]Y(Carboxymethyl)DWL[Bip][Ile(3ξ)][NMeA][dL]H[Cha]VSC[Orn][AEEA][Aun]-OH; thioether N-14), the 50% inhibitory concentration (IC50) was 50.7 nM.

`CCC(C)[C@@H]1NC(=O)[C@H](Cc2ccc(-c3ccccc3)cc2)NC(=O)[C@H](CC(C)C)NC(=O)[C@H](Cc2cccc(C)c2)NC(=O)[C@H](CC(=O)O)NC(=O)[C@H](Cc2ccc(OCC(=O)O)cc2)NC(=O)[C@H](Cc2ccncc2)NC(=O)CSC[C@@H](C(=O)N[C@@H](CCCN)C(=O)NCCOCCOCC(=O)NCCCCCCCCCCC(=O)O)NC(=O)[C@H](C(C)O)NC(=O)[C@H](C(C)C)NC(=O)[C@H](CC2CCCCC2)NC(=O)[C@H](CCN)NC(=O)[C@@H](CC(C)C)NC(=O)[C@H](C)N(C)C1=O` (stereo partly drawn) [Example 2088] ({CH2CO}-[4Pal]Y(Carboxymethyl)D[Phe(3-Me)]L[Bip][Ile(3ξ)][NMeA][dL][Dab][Cha]V[Thr(3ξ)]C[Orn][AEEA][Aun]-OH; thioether N-14): the IC50 amounted to 12.8 nM.

Consider `CC(C)C[C@H]1NC(=O)[C@H](C)N(C)C(=O)[C@H](C(C)C)NC(=O)[C@H](Cc2ccc(-c3ccccc3)cc2)NC(=O)[C@H](C(C)C)NC(=O)[C@H](Cc2c[nH]c3ccccc23)NC(=O)[C@H](CC(=O)O)NC(=O)[C@H](Cc2ccc(OCC(=O)O)cc2)NC(=O)[C@H](CCCCNC(=N)N)NC(=O)CSC[C@@H](C(=O)N[C@@H](CCCCN)C(=O)NCCOCCOCC(=O)NCCCCCCCCCCC(=O)O)NC(=O)[C@H](CO)NC(=O)[C@H](C(C)C)NC(=O)[C@H](CC2CCCCC2)NC(=O)[C@H](CCN)NC1=O` [Example 2089] ({CH2CO}-[hArg]Y(Carboxymethyl)DWV[Bip]V[NMeA][dL][Dab][Cha]VSCK[AEEA][Aun]-OH; thioether N-14), for which the IC50 came to 12.3 nM.

With `CC(C)C[C@H]1NC(=O)[C@H](C)N(C)C(=O)[C@H](C(C)C)NC(=O)[C@H](Cc2ccc(-c3ccccc3)cc2)NC(=O)[C@H](C2CCCCC2)NC(=O)[C@H](Cc2c[nH]c3ccccc23)NC(=O)[C@H](CC(=O)O)NC(=O)[C@H](Cc2ccc(OCC(=O)O)cc2)NC(=O)[C@H](Cc2ccncc2)NC(=O)CSC[C@@H](C(=O)N[C@@H](CCCCN)C(=O)NCCOCCOCC(=O)NCCCCCCCCCCC(=O)O)NC(=O)[C@H](CO)NC(=O)[C@H](C(C)C)NC(=O)[C@H](CC2CCCCC2)NC(=O)[C@H](CC(=O)O)NC1=O` [Example 2090] ({CH2CO}-[4Pal]Y(Carboxymethyl)DW[Chg][Bip]V[NMeA][dL]D[Cha]VSCK[AEEA][Aun]-OH; thioether N-14), the half-inhibitory concentration (IC50) was 48.2 nM.

Regarding `CC(C)C[C@H]1NC(=O)[C@H](C)N(C)C(=O)[C@H](C(C)C)NC(=O)[C@H](Cc2ccc(-c3ccccc3)cc2)NC(=O)[C@H](C2CCCCC2)NC(=O)[C@H](Cc2c[nH]c3ccccc23)NC(=O)[C@H](CC(=O)O)NC(=O)[C@H](Cc2ccncc2)NC(=O)[C@H](Cc2ccc(OCC(=O)O)cc2)NC(=O)CSC[C@@H](C(=O)N[C@@H](CCCCN)C(=O)NCCOCCOCC(=O)NCCCCCCCCCCC(=O)O)NC(=O)[C@H](CO)NC(=O)[C@H](C(C)C)NC(=O)[C@H](CC2CCCCC2)NC(=O)[C@H](CC(=O)O)NC1=O` [Example 2092] ({CH2CO}-Y(Carboxymethyl)[4Pal]DW[Chg][Bip]V[NMeA][dL]D[Cha]VSCK[AEEA][Aun]-OH; thioether N-14), the concentration for half-maximal inhibition (IC50) was determined as 72.8 nM.

Take `CC(C)C[C@H]1NC(=O)[C@H](C)N(C)C(=O)[C@H](C(C)C)NC(=O)[C@H](Cc2ccc(-c3ccccc3)cc2)NC(=O)[C@H](C2CCCCC2)NC(=O)[C@H](Cc2c[nH]c3ccccc23)NC(=O)[C@H](CC(=O)O)NC(=O)[C@H](CCCCNC(=N)N)NC(=O)[C@H](Cc2ccc(OCC(=O)O)cc2)NC(=O)CSC[C@@H](C(=O)N[C@@H](CCCCN)C(=O)NCCOCCOCC(=O)NCCCCCCCCCCC(=O)O)NC(=O)[C@H](CO)NC(=O)[C@H](C(C)C)NC(=O)[C@H](CC2CCCCC2)NC(=O)[C@H](CC(=O)O)NC1=O` [Example 2093] ({CH2CO}-Y(Carboxymethyl)[hArg]DW[Chg][Bip]V[NMeA][dL]D[Cha]VSCK[AEEA][Aun]-OH; thioether N-14): the half-inhibitory concentration (IC50) was determined as 21 nM.

On to `CC(C)C[C@@H]1NC(=O)[C@H](Cc2c[nH]c3ccccc23)NC(=O)[C@H](CC(=O)O)NC(=O)[C@H](Cc2ccc(C(=O)O)cc2)NC(=O)[C@H](Cc2ccc(OCC(=O)O)cc2)NC(=O)CSC[C@@H](C(=O)N[C@@H](CCN)C(=O)NCCOCCOCC(=O)NCCCCCCCCCCC(=O)O)NC(=O)[C@H](CO)NC(=O)[C@H](C(C)C)NC(=O)[C@H](CC2CCCCC2)NC(=O)[C@H](CCN)NC(=O)[C@@H](CC(C)C)NC(=O)[C@H](C)N(C)C(=O)[C@H](C(C)C)NC(=O)[C@H](Cc2ccc(-c3ccccc3)cc2)NC1=O` [Example 2094] ({CH2CO}-Y(Carboxymethyl)[Phe(4-COOH)]DWL[Bip]V[NMeA][dL][Dab][Cha]VSC[Dab][AEEA][Aun]-OH; thioether N-14), for which the half-inhibitory concentration (IC50) turned out to be 9.6 nM.

As for `CC(C)C[C@@H]1NC(=O)[C@H](Cc2c[nH]c3ccccc23)NC(=O)[C@H](CC(=O)O)NC(=O)[C@H](Cc2ccc(C(=O)O)cc2)NC(=O)[C@H](Cc2ccc(OCC(=O)O)cc2)NC(=O)CSC[C@@H](C(=O)N[C@@H](CCCN)C(=O)NCCOCCOCC(=O)NCCCCCCCCCCC(=O)O)NC(=O)[C@H](CO)NC(=O)[C@H](C(C)C)NC(=O)[C@H](CC2CCCCC2)NC(=O)[C@H](CCN)NC(=O)[C@@H](CC(C)C)NC(=O)[C@H](C)N(C)C(=O)[C@H](C(C)C)NC(=O)[C@H](Cc2ccc(-c3ccccc3)cc2)NC1=O` [Example 2095] ({CH2CO}-Y(Carboxymethyl)[Phe(4-COOH)]DWL[Bip]V[NMeA][dL][Dab][Cha]VSC[Orn][AEEA][Aun]-OH; thioether N-14), the half-inhibitory concentration (IC50) turned out to be 9.5 nM.

Consider `CC(C)C[C@@H]1NC(=O)[C@H](Cc2c[nH]c3ccccc23)NC(=O)[C@H](CC(=O)O)NC(=O)[C@H](Cc2ccc(C(=O)O)cc2)NC(=O)[C@H](Cc2ccc(OCC(=O)O)cc2)NC(=O)CSC[C@@H](C(=O)N[C@@H](CCCCN)C(=O)NCCOCCOCC(=O)NCCCCCCCCCCC(=O)O)NC(=O)[C@H](CO)NC(=O)[C@H](C(C)C)NC(=O)[C@H](CC2CCCCC2)NC(=O)[C@H](CCN)NC(=O)[C@@H](CC(C)C)NC(=O)[C@H](C)N(C)C(=O)[C@H](C(C)C)NC(=O)[C@H](Cc2ccc(-c3ccccc3)cc2)NC1=O` [Example 2096] ({CH2CO}-Y(Carboxymethyl)[Phe(4-COOH)]DWL[Bip]V[NMeA][dL][Dab][Cha]VSCK[AEEA][Aun]-OH; thioether N-14), for which the IC50 was 11.8 nM.

On to `CC(C)C[C@@H]1NC(=O)[C@H](Cc2c[nH]c3ccccc23)NC(=O)[C@H](CC(=O)O)NC(=O)[C@H](Cc2ccccc2)NC(=O)[C@H](Cc2ccc(O)cc2)NC(=O)CSC[C@@H](C(=O)N[C@@H](CCCCN)C(=O)NCCOCCOCC(=O)NCCCCCCCCCCC(=O)O)NC(=O)[C@H](CO)NC(=O)[C@H](C(C)C)NC(=O)[C@H](CC2CCCCC2)NC(=O)[C@H](CCN)NC(=O)[C@@H](CC(C)C)NC(=O)[C@H](C)N(C)C(=O)[C@H](C(C)C)NC(=O)[C@H](Cc2ccc(-c3ccccc3)cc2)NC1=O` [Example 2097] ({CH2CO}-YFDWL[Bip]V[NMeA][dL][Dab][Cha]VSCK[AEEA][Aun]-OH; thioether N-14), for which the concentration for half-maximal inhibition (IC50) turned out to be 94.8 nM.

Regarding `CC(C)C[C@@H]1NC(=O)[C@H](Cc2c[nH]c3ccccc23)NC(=O)[C@H](CC(=O)O)NC(=O)[C@H](Cc2ccccc2)NC(=O)[C@H](Cc2ccc(OCC(=O)O)cc2)NC(=O)CSC[C@@H](C(=O)N[C@@H](CCCCN)C(=O)NCCOCCOCC(=O)NCCCCCCCCCCC(=O)O)NC(=O)[C@H](CO)NC(=O)[C@H](C(C)C)NC(=O)[C@H](CC2CCCCC2)NC(=O)[C@H](CCN)NC(=O)[C@@H](CC(C)C)NC(=O)[C@H](C)N(C)C(=O)[C@H](C(C)C)NC(=O)[C@H](Cc2ccc(-c3ccccc3)cc2)NC1=O` [Example 2098] ({CH2CO}-Y(Carboxymethyl)FDWL[Bip]V[NMeA][dL][Dab][Cha]VSCK[AEEA][Aun]-OH; thioether N-14), the half-maximal inhibitory concentration (IC50) was found to be 24 nM.
